{
  "source": "patent EP4603105A1",
  "about": "“PHARMACEUTICAL COMPOSITION CONTAINING CYCLIC COMPOUND HAVING SELECTIVE KRAS INHIBITORY EFFECT AGAINST HRAS AND NRAS” (CHUGAI SEIYAKU KABUSHIKI KAISHA, priority 2022, dated 2024)",
  "key": {"[1]": {"molecular_target": "GDP-bound NRAS wild-type protein (Homo sapiens, UniProt P01111)", "sequence (P01111 whole entry)": "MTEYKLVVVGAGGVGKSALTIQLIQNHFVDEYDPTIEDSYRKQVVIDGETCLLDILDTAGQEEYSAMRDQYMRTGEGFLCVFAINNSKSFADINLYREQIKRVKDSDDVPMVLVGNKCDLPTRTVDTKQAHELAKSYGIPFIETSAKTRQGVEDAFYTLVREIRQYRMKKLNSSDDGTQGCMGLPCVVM", "test": "Binding to NRAS by surface plasmon resonance (SPR), KD and KD ratio to KRAS", "method_in_brief": "(§1)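 Measured at 30°C: SPR with GDP-loaded, E. coli-expressed biotin-Avi RAS captured (~100–300 RU), ascending 75 s compound injections, HBS pH 7.4 with GDP, MgCl2, 4% DMSO. KD from 1:1 fit.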"}, "[2]": {"molecular_target": "HRAS wild-type protein (Homo sapiens, UniProt P01112)", "sequence (P01112 whole entry)": "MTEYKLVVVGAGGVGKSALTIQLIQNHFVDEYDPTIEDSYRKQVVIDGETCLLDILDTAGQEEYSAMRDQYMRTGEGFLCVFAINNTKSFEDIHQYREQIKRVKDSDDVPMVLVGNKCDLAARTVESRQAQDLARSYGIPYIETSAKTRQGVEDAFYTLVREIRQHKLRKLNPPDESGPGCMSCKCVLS", "test": "Binding to HRAS by surface plasmon resonance (SPR), KD and KD ratio to KRAS", "method_in_brief": "as §1"}, "[3]": {"tested_on": "human lung cancer strain NCI-H441", "assay_type": "cell-based", "method_in_brief": "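Signal came from […] measured per well once the reagent was added. Beforehand, cells were cultured at 37°C and 5% carbon dioxide on a compound series serially diluted in dimethyl sulfoxide.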"}, "[4]": {"conditions": "ratio of the KD value with respect to GDP-bound NRAS wild-type protein to the KD value with respect to KRAS"}, "[5]": {"conditions": "ratio of the KD value with respect to HRAS wild-type protein to the KD value with respect to KRAS"}, "[6]": {"conditions": "ratio of KD value for GDP-bound NRAS wild-type protein to KD value for KRAS (SPR)"}, "[7]": {"conditions": "ratio of KD value for HRAS wild-type protein to KD value for KRAS (SPR)"}},
  "note": "*1 amine or outer side, *2 acyl side, *3 side chain or, on linkers, in order; H or OH if unused. Where a SMILES comes first, the peptide text is derived from it. Bridges are numbered along the chain shown (N, C = ends). [ ]: non-standard residue; d: D form. The star is where a group is joined. hPhe(3-Cl-4-CF3) = N[C@@H](CCc1ccc(C(F)(F)F)c(Cl)c1)C(=O)O; X40 = Cc1ccc(C[C@@H](C(=O)[*:2])N(CC(C)C)[*:1])cc1; NMeGly(cPent) = CN[C@H](C(=O)O)C1CCCC1; NMeD = CN[C@@H](CC(=O)O)C(=O)O; NMeL = CN[C@@H](CC(C)C)C(=O)O; Morpholide = C1CN(*)CCO1; Ac5c = NC1(C(=O)O)CCCC1; Sar = CNCC(=O)O",
  "data": [
    {"smiles": "CCCN1CC(=O)N(C)[C@H]2C/C=C\\CCN(C2=O)[C@@H](Cc2ccc(C)cc2)C(=O)N(C)CC(=O)N[C@@H](CCc2ccc(C(F)(F)F)c(OC)c2)C(=O)N2C[C@H](OCC)C[C@H]2C(=O)NC2(CC(C)(C)C2)C(=O)N(C)[C@@H](C2CCCC2)C(=O)N(C)[C@H](C(=O)N(C)C)CC(=O)N(C)[C@@H](CC)C(=O)N[C@@H]([C@@H](C)CC)C1=O", "note": "[PP2096]", "values": [
      {"measurement": "NRAS /KRAS", "setting": "[1]; [4]", "value": "A (a compound having 10 or more and less than 20 is denoted as A)"},
      {"measurement": "HRAS /KRAS", "setting": "[2]; [5]", "value": "A (a compound having 10 or more and less than 20 is denoted as A)"},
      {"measurement": "IC50", "setting": "[3]", "value": 10.7, "unit": "nM"}
    ]},
    {"smiles": "CCCN(C)C(=O)[C@@H]1CC(=O)N(C)[C@@H](COCC)C(=O)N[C@@H]([C@@H](C)CC)C(=O)N(C)CC(=O)N(C)[C@H]2C/C=C\\CCN(C2=O)[C@@H](Cc2ccc(C(F)(F)F)cc2)C(=O)N(C)CC(=O)N[C@@H](CCc2ccc(C(F)(F)F)c(OC)c2)C(=O)N2C[C@@H](C)C[C@H]2C(=O)NC2(CC(C)(C)C2)C(=O)N(C)[C@@H](C2CCCC2)C(=O)N1C", "note": "[PP1991]", "values": [
      {"measurement": "NRAS /KRAS", "setting": "[1]; [4]", "value": "A (a compound having 10 or more and less than 20 is denoted as A)"},
      {"measurement": "HRAS /KRAS", "setting": "[2]; [5]", "value": "A (a compound having 10 or more and less than 20 is denoted as A)"},
      {"measurement": "IC50", "setting": "[3]", "value": 10.8, "unit": "nM"}
    ]},
    {"smiles": "CCO[C@@H]1C[C@H]2C(=O)NC3(CCC3)C(=O)N(C)[C@@H](C3CCCC3)C(=O)N(C)[C@H](C(=O)N(C)CCOC)CC(=O)N(C)[C@@H](CC(C)C)C(=O)N[C@@H]([C@@H](C)CC)C(=O)N(C)CC(=O)N(C)[C@H]3C/C=C\\CCN(C3=O)[C@@H](Cc3ccc(C(F)(F)F)cc3)C(=O)N(C)CC(=O)N[C@@H](CCc3cc(F)c(C(F)(F)F)c(F)c3)C(=O)N2C1", "note": "[PP1317]", "values": [
      {"measurement": "NRAS /KRAS", "setting": "[1]; ratio of KD with respect to GDP-bound NRAS wild-type protein to KD with respect to KRAS", "value": "A (a compound having 10 or more and less than 20 is denoted as A)"},
      {"measurement": "HRAS /KRAS", "setting": "[2]; ratio of KD with respect to HRAS wild-type protein to KD with respect to KRAS", "value": "B (a compound having 3 or more and less than 10 is denoted as B)"},
      {"measurement": "IC50", "setting": "[3]", "value": 7.6, "unit": "nM"}
    ]},
    {"smiles": "CCO[C@@H]1C[C@H]2C(=O)NC3(CC(C)(C)C3)C(=O)N(C)[C@@H](C3CCCC3)C(=O)N(C)[C@H](C(=O)N(C)C)CC(=O)N(C)[C@@H](CC(C)C)C(=O)N[C@@H]([C@@H](C)CC)C(=O)N(C)CC(=O)N(C)[C@H]3C/C=C\\CCN(C3=O)[C@@H](Cc3ccc(C(F)(F)F)cc3)C(=O)N(C)CC(=O)N[C@@H](CCc3ccc(C(F)(F)F)c(Cl)c3)C(=O)N2C1", "note": "[PP1751]", "values": [
      {"measurement": "NRAS /KRAS", "setting": "[1]; [6]", "value": "A (a compound having 10 or more and less than 20 is denoted as A)"},
      {"measurement": "HRAS /KRAS", "setting": "[2]; [7]", "value": "A (a compound having 10 or more and less than 20 is denoted as A)"},
      {"measurement": "IC50", "setting": "[3]", "value": 2.2, "unit": "nM"}
    ]},
    {"smiles": "CCO[C@@H]1C[C@H]2C(=O)NC3(CC(C)(C)C3)C(=O)N(C)[C@@H](C3CCCC3)C(=O)N(C)[C@H](C(=O)N(C)CC)CC(=O)N(C)[C@H]3CCC/C=C/c4ccc(cc4)C[C@@H](C(=O)N(C)CC(=O)N[C@@H](CCc4cc(F)c(C(F)(F)F)c(F)c4)C(=O)N2C1)N1CC/C=C\\C[C@@H](C1=O)N(C)C(=O)CN(C)C(=O)[C@H]([C@@H](C)CC)NC3=O", "note": "[PP1835]", "values": [
      {"measurement": "NRAS /KRAS", "setting": "[1]; [6]", "value": "A (a compound having 10 or more and less than 20 is denoted as A)"},
      {"measurement": "HRAS /KRAS", "setting": "[2]; [7]", "value": "B (a compound having 3 or more and less than 10 is denoted as B)"},
      {"measurement": "IC50", "setting": "[3]", "value": 4.9, "unit": "nM"}
    ]},
    {"smiles": "CC[C@H](C)[C@@H]1NC(=O)[C@H](CC(C)C)N(C)C(=O)C[C@@H](C(=O)N2CCOCC2)N(C)C(=O)[C@H](C2CCCC2)N(C)C(=O)C2(CCCC2)NC(=O)[C@@H]2CCCN2C(=O)[C@H](CCc2ccc(C(F)(F)F)c(Cl)c2)NC(=O)CN(C)C(=O)[C@H](Cc2ccc(C)cc2)N(CC(C)C)C(=O)CN(C)C(=O)CN(C)C1=O", "note": "[PP0063] ([NMeL]I[Sar][Sar][X40][Sar][hPhe(3-Cl-4-CF3)]P[Ac5c][NMeGly(cPent)][NMeD]-Morpholide; lactam N-11)", "values": [
      {"measurement": "NRAS /KRAS", "setting": "[1]; ratio of KD for GDP-bound NRAS wild-type protein to KD for KRAS", "value": "C (A compound having a KD ratio of 0.1 or more and less than 3 is denoted as C)"},
      {"measurement": "HRAS /KRAS", "setting": "[2]; ratio of KD for HRAS wild-type protein to KD for KRAS", "value": "C (A compound having a KD ratio of 0.1 or more and less than 3 is denoted as C)"},
      {"measurement": "IC50", "setting": "[3]", "value": 39.3, "unit": "nM"}
    ]}
  ]
}
